Laboratory results: US12637473B2, “MDM2 protein degraders” (THE REGENTS OF THE UNIVERSITY OF MICHIGAN, priority 2016, dated 2026)

Test system: RS4; 11 cell line
Assay: CellTiter-Glo Luminescent Cell Viability Assay, cell growth inhibition
Type: cell-based
Conditions: Homo sapiens, 96 h, 4 days
Method: Cell growth inhibitory activity of representative MDM2 protein degraders was determined using CellTiter-Glo® Luminescent Cell Viability Assay. Cells were seeded in 384-well white opaque cell culture plates at a density of 2,000 cells/well with serially diluted compounds and incubated at 37° C. in an atmosphere of 95% air and 5% CO2 for 4 days. Cell viability was determined using the CellTiter-Glo® Luminescent Cell Viability Assay Kit (Promega, Madison, WI) according to the manufacture's instruction. Briefly, a volume of CellTiter-Glo® Reagent equal to the volume of cell culture medium was added to each well, and then the plates were incubated at room temperature for 10-20 minutes. The luminescent signal was measured using a Tecan Infinite M1000 multimode microplate reader (Tecan, Morrisville, NC). The half maximal inhibitory concentration (IC50) was calculated using the GraphPad Prism 5 software (GraphPad Software, La Jolla, CA). Cpd. […] The structure of Cpd.

Structure (SMILES) | IC50 [nM]
O=C1CCC(N2C(=O)c3cccc(NCCCCCNC(=O)c4ccc(NC(=O)[C@@H]5NC6(CCCCC6)[C@@]6(C(=O)Nc7cc(Cl)ccc76)[C@H]5c5cccc(Cl)c5F)cc4)c3C2=O)C(=O)N1 (stereo partly drawn) [Cpd. No. 10, (3′R,4'S,5′R)-6″-chloro-4′-(3-chloro-2-fluorophenyl)-N-(4-((5-((2-(2,6-dioxopiperidin-3-yl)-1,3-dioxoisoindolin-4-yl)amino)pentyl)carbamoyl)phenyl)-2″-oxodispiro[cyclohexane-1,2′-pyrrolidine-3′,3″-indoline]-5′-carboxamide] | 12
O=C1CCC(N2C(=O)c3cccc(NCCCCCCCNC(=O)c4ccc(NC(=O)[C@@H]5NC6(CCCCC6)[C@@]6(C(=O)Nc7cc(Cl)ccc76)[C@H]5c5cccc(Cl)c5F)cc4)c3C2=O)C(=O)N1 (stereo partly drawn) [Cpd. No. 12, (3′R,4'S,5′R)-6″-chloro-4′-(3-chloro-2-fluorophenyl)-N-(4-((7-((2-(2,6-dioxopiperidin-3-yl)-1,3-dioxoisoindolin-4-yl)amino)heptyl)carbamoyl)phenyl)-2″-oxodispiro[cyclohexane-1,2′-pyrrolidine-3′,3″-indoline]-5′-carboxamide] | 100
O=C1CCC(N2C(=O)c3cccc(NCCCOCCOCCOCCCNC(=O)c4ccc(NC(=O)[C@@H]5NC6(CCCCC6)[C@@]6(C(=O)Nc7cc(Cl)ccc76)[C@H]5c5cccc(Cl)c5F)nc4)c3C2=O)C(=O)N1 (stereo partly drawn) [Cpd. No. 25, (3′R,4'S,5′R)-6″-chloro-4′-(3-chloro-2-fluorophenyl)-N-(5-((3-(2-(2-(3-((2-(2,6-dioxopiperidin-3-yl)-1,3-dioxoisoindolin-4-yl)amino)propoxy)ethoxy)ethoxy)propyl)carbamoyl)pyridin-2-yl)-2″-oxodispiro[cyclohexane-1,2′-pyrrolidine-3′,3″-indoline]-5′-carboxamide] | 7.4
O=C1CCC(N2C(=O)c3cccc(NCCOCCOCCNC(=O)c4ccc(NC(=O)[C@@H]5NC6(CCCCC6)[C@@]6(C(=O)Nc7cc(Cl)ccc76)[C@H]5c5cccc(Cl)c5F)cn4)c3C2=O)C(=O)N1 (stereo partly drawn) [Cpd. No. 26, (3′R,4'S,5′R)-6″-chloro-4′-(3-chloro-2-fluorophenyl)-N-(6-((2-(2-(2-((2-(2,6-dioxopiperidin-3-yl)-1,3-dioxoisoindolin-4-yl)amino)ethoxy)ethoxy)ethyl)carbamoyl)pyridin-3-yl)-2″-oxodispiro[cyclohexane-1,2′-pyrrolidine-3′,3″-indoline]-5′-carboxamide] | 8
O=C1CCC(N2C(=O)c3cccc(NCCCOCCOCCOCCCNC(=O)c4ccc(NC(=O)[C@@H]5NC6(CCCCC6)[C@@]6(C(=O)Nc7cc(Cl)ccc76)[C@H]5c5cccc(Cl)c5F)cn4)c3C2=O)C(=O)N1 (stereo partly drawn) [Cpd. No. 27, (3′R,4'S,5′R)-6″-chloro-4′-(3-chloro-2-fluorophenyl)-N-(6-((3-(2-(2-(3-((2-(2,6-dioxopiperidin-3-yl)-1,3-dioxoisoindolin-4-yl)amino)propoxy)ethoxy)ethoxy)propyl)carbamoyl)pyridin-3-yl)-2″-oxodispiro[cyclohexane-1,2′-pyrrolidine-3′,3″-indoline]-5′-carboxamide] | 4.6
O=C1CCC(N2Cc3c(NC(=O)CCCCNC(=O)c4ccc(NC(=O)[C@@H]5NC6(CCCCC6)[C@@]6(C(=O)Nc7cc(Cl)ccc76)[C@H]5c5cccc(Cl)c5F)cc4)cccc3C2=O)C(=O)N1 (stereo partly drawn) [Cpd. No. 28, (3′R,4'S,5′R)-6″-chloro-4′-(3-chloro-2-fluorophenyl)-N-(4-((5-((2-(2,6-dioxopiperidin-3-yl)-1-oxoisoindolin-4-yl)amino)-5-oxopentyl)carbamoyl)phenyl)-2″-oxodispiro[cyclohexane-1,2′-pyrrolidine-3′,3″-indoline]-5′-carboxamide] | 7
O=C1CCC(N2Cc3c(NC(=O)CCOCCOCCNC(=O)c4ccc(NC(=O)[C@@H]5NC6(CCCCC6)[C@@]6(C(=O)Nc7cc(Cl)ccc76)[C@H]5c5cccc(Cl)c5F)cc4)cccc3C2=O)C(=O)N1 (stereo partly drawn) [Cpd. No. 29, (3′R,4'S,5′R)-6″-chloro-4′-(3-chloro-2-fluorophenyl)-N-(4-((2-(2-(3-((2-(2,6-dioxopiperidin-3-yl)-1-oxoisoindolin-4-yl)amino)-3-oxopropoxy)ethoxy)ethyl)carbamoyl)phenyl)-2″-oxodispiro[cyclohexane-1,2′-pyrrolidine-3′,3″-indoline]-5′-carboxamide] | 15
O=C1CCC(N2Cc3c(NC(=O)CCOCCOCCOCCNC(=O)c4ccc(NC(=O)[C@@H]5NC6(CCCCC6)[C@@]6(C(=O)Nc7cc(Cl)ccc76)[C@H]5c5cccc(Cl)c5F)cc4)cccc3C2=O)C(=O)N1 (stereo partly drawn) [Cpd. No. 30, (3′R,4'S,5′R)-6″-chloro-4′-(3-chloro-2-fluorophenyl)-N-(4-((2-(2-(2-(3-((2-(2,6-dioxopiperidin-3-yl)-1-oxoisoindolin-4-yl)amino)-3-oxopropoxy)ethoxy)ethoxy)ethyl)carbamoyl)phenyl)-2″-oxodispiro[cyclohexane-1,2′-pyrrolidine-3′,3″-indoline]-5′-carboxamide] | 13
O=C1CCC(N2Cc3c(CCCCCNC(=O)c4ccc(NC(=O)[C@@H]5NC6(CCCCC6)[C@@]6(C(=O)Nc7cc(Cl)ccc76)[C@H]5c5cccc(Cl)c5F)cc4)cccc3C2=O)C(=O)N1 (stereo partly drawn) [Cpd. No. 31, (3′R,4'S,5′R)-6″-chloro-4′-(3-chloro-2-fluorophenyl)-N-(4-((5-(2-(2,6-dioxopiperidin-3-yl)-1-oxoisoindolin-4-yl)pentyl)carbamoyl)phenyl)-2″-oxodispiro[cyclohexane-1,2′-pyrrolidine-3′,3″-indoline]-5′-carboxamide] | 1.8
O=C1CCC(N2C(=O)c3cccc(CCCCCNC(=O)c4ccc(NC(=O)[C@@H]5NC6(CCCCC6)[C@@]6(C(=O)Nc7cc(Cl)ccc76)[C@H]5c5cccc(Cl)c5F)cc4)c3C2=O)C(=O)N1 (stereo partly drawn) [Cpd. No. 32, (3′R,4'S,5′R)-6″-chloro-4′-(3-chloro-2-fluorophenyl)-N-(4-((5-(2-(2,6-dioxopiperidin-3-yl)-1,3-dioxoisoindolin-4-yl)pentyl)carbamoyl)phenyl)-2″-oxodispiro[cyclohexane-1,2′-pyrrolidine-3′,3″-indoline]-5′-carboxamide] | 23
O=C1CCC(N2Cc3c(CCCOCCNC(=O)c4ccc(NC(=O)[C@@H]5NC6(CCCCC6)[C@@]6(C(=O)Nc7cc(Cl)ccc76)[C@H]5c5cccc(Cl)c5F)cc4)cccc3C2=O)C(=O)N1 (stereo partly drawn) [Cpd. No. 33, (3′R,4'S,5′R)-6″-chloro-4′-(3-chloro-2-fluorophenyl)-N-(4-((2-(3-(2-(2,6-dioxopiperidin-3-yl)-1-oxoisoindolin-4-yl)propoxy)ethyl)carbamoyl)phenyl)-2″-oxodispiro[cyclohexane-1,2′-pyrrolidine-3′,3″-indoline]-5′-carboxamide] | 2.9
O=C1CCC(N2C(=O)c3cccc(CCCOCCNC(=O)c4ccc(NC(=O)[C@@H]5NC6(CCCCC6)[C@@]6(C(=O)Nc7cc(Cl)ccc76)[C@H]5c5cccc(Cl)c5F)cc4)c3C2=O)C(=O)N1 (stereo partly drawn) [Cpd. No. 34, (3′R,4'S,5′R)-6″-chloro-4′-(3-chloro-2-fluorophenyl)-N-(4-((2-(3-(2-(2,6-dioxopiperidin-3-yl)-1,3-dioxoisoindolin-4-yl)propoxy)ethyl)carbamoyl)phenyl)-2″-oxodispiro[cyclohexane-1,2′-pyrrolidine-3′,3″-indoline]-5′-carboxamide] | 17.8
O=C1CCC(N2Cc3c(CCCOCCOCCNC(=O)c4ccc(NC(=O)[C@@H]5NC6(CCCCC6)[C@@]6(C(=O)Nc7cc(Cl)ccc76)[C@H]5c5cccc(Cl)c5F)cc4)cccc3C2=O)C(=O)N1 (stereo partly drawn) [Cpd. No. 35, (3′R,4'S,5′R)-6″-chloro-4′-(3-chloro-2-fluorophenyl)-N-(4-((2-(2-(3-(2-(2,6-dioxopiperidin-3-yl)-1-oxoisoindolin-4-yl)propoxy)ethoxy)ethyl)carbamoyl)phenyl)-2″-oxodispiro[cyclohexane-1,2′-pyrrolidine-3′,3″-indoline]-5′-carboxamide] | 5.7
O=C1CCC(N2C(=O)c3cccc(CCCOCCOCCNC(=O)c4ccc(NC(=O)[C@@H]5NC6(CCCCC6)[C@@]6(C(=O)Nc7cc(Cl)ccc76)[C@H]5c5cccc(Cl)c5F)cc4)c3C2=O)C(=O)N1 (stereo partly drawn) [Cpd. No. 36, (3′R,4'S,5′R)-6″-chloro-4′-(3-chloro-2-fluorophenyl)-N-(4-((2-(2-(3-(2-(2,6-dioxopiperidin-3-yl)-1,3-dioxoisoindolin-4-yl)propoxy)ethoxy)ethyl)carbamoyl)phenyl)-2″-oxodispiro[cyclohexane-1,2′-pyrrolidine-3′,3″-indoline]-5′-carboxamide] | 37.4
O=C1CCC(N2Cc3c(CCCOCCOCCOCCNC(=O)c4ccc(NC(=O)[C@@H]5NC6(CCCCC6)[C@@]6(C(=O)Nc7cc(Cl)ccc76)[C@H]5c5cccc(Cl)c5F)cc4)cccc3C2=O)C(=O)N1 (stereo partly drawn) [Cpd. No. 37, (3′R,4'S,5′R)-6″-chloro-4′-(3-chloro-2-fluorophenyl)-N-(4-((2-(2-(2-(3-(2-(2,6-dioxopiperidin-3-yl)-1-oxoisoindolin-4-yl)propoxy)ethoxy)ethoxy)ethyl)carbamoyl)phenyl)-2″-oxodispiro[cyclohexane-1,2′-pyrrolidine-3′,3″-indoline]-5′-carboxamide] | 3.8
O=C1CCC(N2C(=O)c3cccc(CCCOCCOCCOCCNC(=O)c4ccc(NC(=O)[C@@H]5NC6(CCCCC6)[C@@]6(C(=O)Nc7cc(Cl)ccc76)[C@H]5c5cccc(Cl)c5F)cc4)c3C2=O)C(=O)N1 (stereo partly drawn) [Cpd. No. 38, (3′R,4'S,5′R)-6″-chloro-4′-(3-chloro-2-fluorophenyl)-N-(4-((2-(2-(2-(3-(2-(2,6-dioxopiperidin-3-yl)-1,3-dioxoisoindolin-4-yl)propoxy)ethoxy)ethoxy)ethyl)carbamoyl)phenyl)-2″-oxodispiro[cyclohexane-1,2′-pyrrolidine-3′,3″-indoline]-5′-carboxamide] | 46
